Measurements: patent publication US8546416B2, “3-spirocyclic piperidine derivatives as ghrelin receptor agonists” (Novartis AG, priority 2011, dated 2013)

Columns and labels:
[1] = biological target: T1, human recombinant ghrelin receptor (GHS-R1a) (Homo sapiens, UniProt Q92847); assay: hGHS-R1a cAMP assay (HTRF cAMP dynamic 2 kit, CHO-hGHS-R1a cells); type: cell-based; settings: 60 min incubation, dose response up to 30 μM
T1 construct: host or cells: CHO-K1
Method: (§1) Chinese hamster ovary (CHO-K1) cells expressing human recombinant ghrelin receptor (GHS-R1a) were purchased from Euroscreen (ES-410-C) and propagated in UltraCHO medium containing glutamine and supplemented with 1% heat inactivated foetal calf serum (FCS), 100 U/ml penicillin, 100 mg/l streptomycin and 0.8 g/l geneticin. Cells were sub-cultured twice a week with a 1:10 dilution. For passaging, cells were washed with 1×DPBS without calcium and magnesium, trypsinised for 10 min with 0.05% Trypsin/EDTA and resuspended in cell culture medium.
The Homogeneous Time-Resolved Fluorescence (HTRF) cAMP dynamic 2 kit (Cisbio International, France) was used as follows. CHO-hGHS-R1a or CHO-rGHS-R1a cells were seeded in a volume of 25 μl culture media at 10,000 cells/well (400,000 cells/ml) in Greiner white 384-well high volume plates and incubated overnight (18-24 h) at 37° C./5% CO2. Then, media was removed and 6 μl assay buffer [HBSS, 10 mM Hepes, 0.2% (w/v) BSA, 1.7 mM IBMX, (pH7.4)] were added to the wells. To generate a dose response up to 30 μM, 10 mM compound stocks in 100% (v/v) DMSO were firstly diluted in 50% (v/v) DMSO followed by a further dilution into assay buffer. Then, 4 μl of 2.5× compound (dose response as 9 point log serial dilution in assay buffer from 30 μM as maximum concentration) were added to each well achieving a final DMSO assay concentration of 0.8% (v/v). 0.1 μM forskolin was added as positive control. After 30 min (rGHS-R1a cell line) or 60 min (hGHS-R1a cell line) incubation at 37° C./5% CO2, 5 μl of cAMP-d2 and 5 μl of anti-cAMP antibody-cryptate, (both made in lysis buffer), were added to the plate followed by 1 h incubation at RT. During this time, cAMP produced by the cells competed with cAMP-d2 for the anti-cAMP antibody-cryptate molecule. Then, the plate was read on the Pherastar instrument (BMG, Germany) at two different emission wavelengths (620 and 650 nm). Increasing levels of endogenous cAMP produced by cells could be followed by a decrease of FRET fluorescent signal and viceversa. Values represented by a change in arbitrary fluorescence ratios (665/620) were converted into cAMP concentrations by using a standard curve, the reagents for which were supplied with the kit. EC50 values of agonists were calculated using the nonlinear logistic function of the Prism 5 software (GraphPad, USA). Emax were expressed as relative values of the ghrelin response, which was defined as 100%.

[2] = biological target: T1, human recombinant ghrelin receptor (GHS-R1a); assay: hGHS-R1a Ca assay (Fluo-4 calcium assay in CHO-K1 cells); type: cell-based; settings: for EC50: CHO-K1 cells expressing human GHS-R1a, agonist dose response up to 30 μM
Method: as §1
Cells were diluted to achieve 1×10^6 cells/ml, seeded in 384-well black clear bottom CellBind plates at 25000 cells/well (25 ul) and incubated overnight at 37° C./5% CO2 Cells were expected to be 85-90% confluent on the day of assay (checked under the microscope) to ensure a high quality assay. Media was manually removed and 40 μl of loading solution containing probenecid and Fluo-4 no wash dye (a calcium indicator, Invitrogen F36206) were added to each well. After 30 min at 37° C. followed by another 30 min at RT, cpds were added to the wells. To generate a dose response up to 30 μM, 10 mM compound stocks in 100% (v/v) DMSO were firstly diluted in 50% (v/v) DMSO. Then, serial dilutions aimed at a full logarithmic dose responses (8 point) were performed in assay buffer [1×HBSS, 20 mM Hepes, 0.1% (w/v) BSA] to give 2.5% (v/v) DMSO and 5× final compound concentrations. The final assay DMSO concentration was 0.5% (v/v). After loading the cells with Fluo-4 containing solution, plates were read on a CellLux instrument (Perkin Elmer). A protocol set up to add 10 μl of 5× compound and to read the plate for 60 sec after adding the compound at 17th sec was used. Fluorescence excitation took place at 494 nm and emission at 516 nm. EC50 values of agonists were calculated by fitting the percent stimulation over background [(Max−Min)/Min] using the nonlinear logistic function of the Prism 5 software (GraphPad, USA).

T1 sequence (Q92847 whole entry): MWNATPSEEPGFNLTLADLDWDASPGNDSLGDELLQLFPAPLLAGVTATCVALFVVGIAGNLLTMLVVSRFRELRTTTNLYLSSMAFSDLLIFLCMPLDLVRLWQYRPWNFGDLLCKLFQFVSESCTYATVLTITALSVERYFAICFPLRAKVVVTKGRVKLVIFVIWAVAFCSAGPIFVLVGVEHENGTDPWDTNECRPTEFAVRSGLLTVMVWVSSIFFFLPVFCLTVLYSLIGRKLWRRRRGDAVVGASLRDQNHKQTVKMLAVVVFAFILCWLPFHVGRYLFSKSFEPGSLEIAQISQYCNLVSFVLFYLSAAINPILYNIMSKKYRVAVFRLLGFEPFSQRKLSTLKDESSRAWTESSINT

Row | SMILES | EC50 [1] [µM] | EC50 [2] [µM] | Emax ([2]; CHO-K1, relative to Emax induced by MK-0677 (defined as 100%)) [%]
1 | CN1CC(c2ccccc2)C2(CCCN(C(=O)[C@@H](COCc3ccc(F)cc3)NC(=O)C(C)(C)N)C2)C1=O (single isomer, unassigned) [Example 7.0, 2-Amino-N-[(R)-1-(4-fluoro-benzyloxymethyl)-2-(4S,5R)-2-methyl-1-oxo-4-phenyl-2,7-diaza-spiro[4.5]dec-7-yl)-2-oxo-ethyl]-2-methyl-propionamide or 2-Amino-N-[(R)-1-(4-fluoro-benzyloxymethyl)-2-(4R,5S)-2-methyl-1-oxo-4-phenyl-2,7-diaza-spiro[4.5]dec-7-yl)-2-oxo-ethyl]-2-methyl-propionamide] | 0.138 | 0.00017 | 
2 | CN1C[C@@H](c2ccc(F)cc2)[C@@]2(CCCN(C(=O)[C@@H](COCc3ccccc3)NC(=O)C(C)(C)N)C2)C1=O [Example 1.2, 2-Amino-N-((2R)-3-(benzyloxy)-1-((4S,5R)-4-(4-fluorophenyl)-2-methyl-1-oxo-2,7-diazaspiro[4.5]decan-7-yl)-1-oxopropan-2-yl)-2-methylpropanamide] | 0.055 | 0.0001 | 
3 | CN1CC(c2ccc(F)cc2)C2(CCCN(C(=O)[C@@H](COCc3ccc(Cl)cc3)NC(=O)C(C)(C)N)C2)C1=O (single isomer, unassigned) [Example 1.57] | 0.043 | 0.00022 | 
4 | Cc1ccc(COC[C@@H](NC(=O)C(C)(C)N)C(=O)N2CCCC3(C2)C(=O)N(C)CC3c2ccccc2)cc1 (single isomer, unassigned) [Example 1.55] | 0.072 | 0.00013 | 
5 | CN1CC(c2ccccc2)C2(CCCN(C(=O)[C@@H](COCc3ccccc3)NC(=O)C(C)(N)C(F)(F)F)C2)C1=O (stereo partly drawn) [Example 1.73, 2-amino-N-((2R)-3-(benzyloxy)-1-(2-methyl-1-oxo-4-phenyl-2,7-diazaspiro[4.5]decan-7-yl)-1-oxopropan-2-yl)-3,3,3-trifluoro-2-methylpropanamide] | ≥ 30 | 3.32 | 
6 | CN1CC(c2ccccc2)C2(CCCN(C(=O)[C@@H](CCCc3ccccc3)NC(=O)C(C)(C)N)C2)C1=O (single isomer, unassigned) [Example 1.32] | 0.011 | 0.0003 | 
7 | CN1CC(c2ccc(Cl)cc2)C2(CCCN(C(=O)[C@@H](COCc3ccccc3)NC(=O)C(C)(C)N)C2)C1=O (single isomer, unassigned) [Example 1.8] | 0.162 | 0.0003 | 
8 | Cc1ccccc1C1CN(C)C(=O)C12CCCN(C(=O)[C@@H](COCc1ccccc1)NC(=O)C(C)(C)N)C2 (single isomer, unassigned) [Example 1.51] | 0.067 | 0.0002 | 
9 | Cc1ccc(COC[C@@H](NC(=O)C(C)(C)N)C(=O)N2CCCC3(C2)C(=O)N(C)CC3c2ccc(F)cc2)cc1 (single isomer, unassigned) [Example 1.29] | 0.049 | 0.00035 | 
10 | CC(C)N1CC(c2ccc(F)cc2)C2(CCCN(C(=O)[C@@H](Cc3cn(C)c4ccccc34)NC(=O)C(C)(C)N)C2)C1=O (single isomer, unassigned) [Example 1.15] | 0.128 | 0.0016 | 
11 | Cc1ccc(COC[C@@H](NC(=O)C(C)(C)N)C(=O)N2CCCC3(C2)C(=O)N(C)CC3c2ccc(F)cc2)cc1 (stereo partly drawn) [Example 1.72, 2-amino-N-((2R)-1-(4-(4-fluorophenyl)-2-methyl-1-oxo-2,7-diazaspiro[4.5]decan-7-yl)-3-((4-methylbenzyl)oxy)-1-oxopropan-2-yl)-2-methylpropanamide] | 2.56 | 0.005 | 
12 | CN1CC(c2ccccc2)C2(CCCN(C(=O)[C@@H](COCC3CCCCC3)NC(=O)C(C)(C)N)C2)C1=O (single isomer, unassigned) [Example 1.60] | 0.047 | 0.0003 | 
13 | CCC(N)(CC)C(=O)N[C@H](COCc1ccccc1)C(=O)N1CCC[C@@]2(C1)C(=O)N(C)C[C@H]2c1ccccc1 [Example 1.71, 2-amino-N-((R)-3-(benzyloxy)-1-((4S,5R)-2-methyl-1-oxo-4-phenyl-2,7-diazaspiro[4.5]decan-7-yl)-1-oxopropan-2-yl)-2-ethylbutanamide] | 1.14 | 0.0054 | 
14 | CNC(C)(C)C(=O)N[C@H](COCc1ccccc1)C(=O)N1CCCC2(C1)C(=O)N(C)CC2c1ccccc1 (single isomer, unassigned) [Example 1.17] | 0.082 | 0.001 | 
15 | CN1CN(c2ccccc2)C2(CCCN(C(=O)[C@@H](COCc3ccccc3)NC(=O)C(C)(C)N)C2)C1=O (single isomer, unassigned) [Example 1.61] | 0.517 | 0.0029 | 
16 | C[C@H](OCc1ccccc1)[C@@H](NC(=O)C(C)(C)N)C(=O)N1CCCC2(C1)C(=O)N(C)CC2c1ccccc1 (single isomer, unassigned) [Example 1.34] | 0.184 | 0.0005 | 
17 | CN1CC(c2ccccc2)C2(CCCN(C(=O)[C@@H](CCc3ccccc3)NC(=O)C(C)(C)N)C2)C1=O (single isomer, unassigned) [Example 1.28] | 0.141 | 0.00065 | 
18 | CN1CC(c2ccc(F)cc2)C2(CCCN(C(=O)[C@@H](Cc3c[nH]c4ccccc34)NC(=O)C(C)(C)N)C2)C1=O (single isomer, unassigned) [Example 1.11] | 0.023 | 0.0003 | 

Results, then the compound that gave them:

Row | EC50 [1] [µM] | EC50 [2] [µM] | Emax ([2]; CHO-K1, relative to Emax induced by MK-0677 (defined as 100%)) [%] | SMILES
19 | 2.28 | 0.0016 |  | CN1CC(c2ccccc2)C2(CCCN(C(=O)[C@@H](COCc3ccccc3)NC(=O)C(C)(C)N)C2)C1=O (single isomer, unassigned) [Example 1.20]
20 | 0.034 | 0.0007 |  | CC(C)(C)CN1CC(c2ccccc2)C2(CCCN(C(=O)[C@@H](COCc3ccccc3)NC(=O)C(C)(C)N)C2)C1=O (single isomer, unassigned) [Example 1.40]
21 | 1.34 | 0.0023 |  | CN1C[C@H](c2ccccc2)[C@]2(CCCN(C(=O)[C@@H](COCc3ccccc3)NC(=O)C(C)(C)N)C2)C1=O (single isomer, unassigned) [Example 1.0(i)]
22 | 0.051 | 0.0002 |  | CC(C)(N)C(=O)N[C@H](COCc1ccccc1)C(=O)N1CCCC2(C1)C(=O)NCC2c1ccccc1 (single isomer, unassigned) [Example 1.4]
23 | 0.02 | 0.0001 |  | CC(C)N1CC(c2ccccc2)C2(CCCN(C(=O)[C@@H](COCc3ccccc3)NC(=O)C(C)(C)N)C2)C1=O (single isomer, unassigned) [Example 1.5]
24 | 0.456 | 0.0011 |  | CN1C(=O)C2(CCCN(C(=O)[C@@H](COCc3ccccc3)NC(=O)C(C)(C)N)C2)C1c1ccccc1 (single isomer, unassigned) [Example 2.0(ii)]
25 | 0.043 | 0.00016 |  | CN1C[C@@H](c2ccccc2)[C@@]2(CCCN(C(=O)[C@@H](COCc3ccccc3)NC(=O)C(C)(C)N)C2)C1=O (single isomer, unassigned) [Example 1.0(ii)]
26 | 0.154 | 0.0006 | 93 | CC(C)(N)C(=O)N[C@H](COCc1ccccc1)C(=O)N1CCCC2(C1)C(=O)NCC2c1ccccc1 (single isomer, unassigned) [Example 1.49]
27 | 0.086 | 0.0004 |  | CN1CC(c2ccccc2)C2(CCCN(C(=O)[C@@H](COCc3ccccc3)NC(=O)C(C)(C)N)CC2)C1=O (single isomer, unassigned) [Example 9.0(iv)]
